Patent US20050129662A1 (priority 2002, published 2005)

Key:
Assay type in all cases: in vivo
[1] = test system: peronospora (Plasmopara viticola); assay: Open-field fight against peronospora on muscat vine (Examples 2-6); details: 11 interventions
Source text: (§1) All tables and related theses reproduced herein result from an experimental activity carried out in the open field following precise protocols and experimental guidelines.
(§2) The aim of this experimental activity was that of verifying the possibility of reducing the amount of the chemical formulation employed, while keeping the activity of same unchanged towards adversities to be fought (peronospora, mildew and Panonychus ulmi), thanks to addition of the adjuvant, preferably soybean oil.
(§3) The methodologies for detection of the efficiency results were selected depending on: the pathology to be fought, infection, % spreading of the disease for peronospora, mildew and acid rot, and depending on the count of the mite number per leaf in the fight tests against Panonychus ulmi.
(§4) Among the great number of statistical tests interpreting the experimental data items, Duncan test in the scientific field is considered as one of the best evaluation instruments for significance of the experimental data items. […] Example: 12.5a 0.9b 0.3b

Lactuga sativa = assay: Composite chemical weedkilling, spraying on trays of lettuce plants (Examples 12-15); details: 1 intervention; for % devitalization T + 14: 14 days from treatment; for % devitalization T + 27: 27 days from treatment
Source text: • Treatment: 300 l/ha of solution were sprayed • Experimental pattern: spraying on 4 trays, each containing 8 lettuce plants • Flower survey: carried out after 14 days from treatment (T), (T+14), and after 27 days (T+27), stating the devitalization degree in percentage
Test target: Composite chemical weedkilling (Lactuga sativa)
With reference to the active ingredients employed in examples 12-15, it was an aim of this experimental research to verify the influence of the emulsion addition on the herbicide activity towards a target weed belonging to the compositae family. By virtue of the high herbicide activity of weedkillers, when applied in the amounts on the label, and in order to highlight possible efficiency variations of same among the different theses dealt with, all active ingredients were employed alone in amounts reduced by ⅓ and reduced by ⅓ in an extemporaneous mixture with the emulsion being the object of the present invention. Example: should the active ingredients have been employed to the amounts reproduced on the label, it would have been very likely to obtain a 100% devitalization of the weed with the active ingredient alone and in a mixture with the emulsion.
As to the methodologies for efficiency detection, a visual estimation was selected, by allocating a % value to the overall devitalizing activity observed on the target plant.

Panonychus ulmi = assay: Open-field fight against Panonychus ulmi on muscat vine (Examples 8-10); details: 1 intervention
Source text: as §1, §2, §3, §4

[2] = test system: mildew (Uncinula necator); details: muscat vine; 4795 g or ml/ha; 6 interventions

**Q.** Which “% infection on bunches” value ([1]; 250 g or ml/ha) does the source give for `CO/C=C(/C(=O)OC)c1ccccc1Oc1cc(Oc2ccccc2C#N)ncn1` [Azoxystrobin] here?
**A.** 0.0 b %

**Q.** And the “% spreading on bunches” value ([1]; 250 g or ml/ha)?
**A.** 0.0 b %

**Q.** What about the “Action Degree” value ([1]; 250 g or ml/ha) of the same compound?
**A.** 100

**Q.** Which results are given for `CCCCCCCC(=O)Oc1c(Br)cc(C#N)cc1Br` [Bromoxynil octanoate]?
**A.** % devitalization T + 14 (Lactuga sativa; 356 g or ml/ha): 56.0%; % devitalization T + 27 (Lactuga sativa; 356 g or ml/ha): 67.5%

**Q.** What does the source list for `O=C(O)c1nc(Cl)ccc1Cl` [Clopyradil]?
**A.** % devitalization T + 14 (Lactuga sativa; 100 g or ml/ha): 85.0%; % devitalization T + 27 (Lactuga sativa; 100 g or ml/ha): 87.5%

**Q.** `COc1ccc(C(=CC(=O)N2CCOCC2)c2ccc(Cl)cc2)cc1OC` [Dimethomorph] was tested. Which “% infection on bunches” value ([1]; 1050 g or ml/ha) did it give?
**A.** 0.0 b %

**Q.** And the “% spreading on bunches” value ([1]; 1050 g or ml/ha)?
**A.** 0.0 b %

**Q.** And the “Action Degree” value ([1]; 1050 g or ml/ha)?
**A.** 100

**Q.** Which “Action Degree” value (Panonychus ulmi; 50 g or ml/ha) does the source give for `O=C(NC(=O)c1c(F)cccc1F)Nc1ccc(Oc2ccc(C(F)(F)F)cc2Cl)cc1F` [Flufenoxuron] here?
**A.** 68.0

**Q.** What about the “Mites per leaf 1” value (Panonychus ulmi; 50 g or ml/ha) of the same compound?
**A.** 1.1 b

**Q.** What about the “Mites per leaf 2” value (Panonychus ulmi; 50 g or ml/ha) of the same compound?
**A.** 3.0 b

**Q.** With `O=C1c2ccccc2C(=O)N1SC(Cl)(Cl)Cl` [Folpet] as the compound, how does the “% infection on bunches” value ([1]; 1200 g or ml/ha) read?
**A.** 0.0 b %

**Q.** And the “% spreading on bunches” value ([1]; 1200 g or ml/ha)?
**A.** 0.0 b %

**Q.** And the “Action Degree” value ([1]; 1200 g or ml/ha)?
**A.** 100

**Q.** For `O=C(O)CNCP(=O)(O)O` [Gliphosate], which “% devitalization T + 14” value (Lactuga sativa; 360 g or ml/ha) is on record?
**A.** 32.0%

**Q.** And the “% devitalization T + 27” value (Lactuga sativa; 360 g or ml/ha)?
**A.** 90.0%

**Q.** With `C[C@@H]1[C@@H](c2ccc(Cl)cc2)SC(=O)N1C(=O)NC1CCCCC1` [Hexythiazox] as the compound, how does the “Action Degree” value (Panonychus ulmi; f.c. 30 g or ml/ha) read?
**A.** 91.6

**Q.** What about the “Mites per leaf 1” value (Panonychus ulmi; f.c. 30 g or ml/ha) of the same compound?
**A.** 0.0 b

**Q.** What about the “Mites per leaf 2” value (Panonychus ulmi; f.c. 30 g or ml/ha) of the same compound?
**A.** 0.6 b

**Q.** With `O=c1[nH]c2c(c(=O)n1C1CCCCC1)CCC2` [Lenacil] as the compound, how does the “% devitalization T + 14” value (Lactuga sativa; 150 g or ml/ha) read?
**A.** 11.0%

**Q.** And the “% devitalization T + 27” value (Lactuga sativa; 150 g or ml/ha)?
**A.** 30.0%

**Q.** What does the source list for `S1SSSSSSS1` [Sulphur]?
**A.** % infection on bunches [2]: 2.2 b %; % spreading on bunches [2]: 12.5 bd %; Action Degree [2]: 85.7

**Q.** With `CCc1nn(C)c(C(=O)NCc2ccc(C(C)(C)C)cc2)c1Cl` [Tebufenpyrad] as the compound, how does the “Action Degree” value (Panonychus ulmi; 125 g or ml/ha) read?
**A.** 80.8

**Q.** And the “Mites per leaf 1” value (Panonychus ulmi; 125 g or ml/ha)?
**A.** 0.4 b

**Q.** What about the “Mites per leaf 2” value (Panonychus ulmi; 125 g or ml/ha) of the same compound?
**A.** 1.1 b

**Q.** Which “% infection on bunches” value ([1]; 960 g or ml/ha) does the source give for Fosetyl-Aluminium here?
**A.** 0.3 b %

**Q.** And the “% spreading on bunches” value ([1]; 960 g or ml/ha)?
**A.** 0.8 b %

**Q.** What about the “Action Degree” value ([1]; 960 g or ml/ha) of the same compound?
**A.** 87.2

**Q.** What does the source list for Mancozeb?
**A.** % infection on bunches ([1]; 1470 g or ml/ha): 0.2 b %; % spreading on bunches ([1]; 1470 g or ml/ha): 0.3 b %; Action Degree ([1]; 1470 g or ml/ha): 97.4
